Reference: patent publication US11299715B2, “Use of iNOS inhibitors to increase viral yield in culture” (priority 2013, dated 2022)

Test system: d27-1/GFP HSV-1
Experiment: Effect of valproic acid pretreatment on d27-1/GFP HSV-1 viral titer in V27 cells
Assay type: cell-based
Procedure: Valproic acid (Sigma-P4543) was dissolved to 1 M concentration in water. V27 cells were seeded into six well plates the day prior to infection at 6×10^5 cells/well. […] This was vortexed well and added to the wells. Plates were incubated for six hours, aspirated and infectious HSV-1 d27-1 stock added at MOI 0.15 (=cell seed density×0.15/pfu titer of HSV stock) per 1 ml of DMEM (no additives).
1 ml of infectious inoculum was added per well and incubated for 1-2 hours at 37° C., 5% CO2 incubator after which time 1.5 ml of DMEM-10% FBS was added. The plates were returned to the incubator for 70-74 hours. Free media was harvested, vortexed, and centrifuged at 1,100×g for 10 minutes at 4° C. Supernatant was transferred to a new dispensing tube, vortexed, and aliquoted. Stocks were frozen at −80° C.
V27 cells were seeded into six well plates the day prior to infection at 6×10^5 cells/well and the next day, different concentrations of VA were added to wells. Plates were incubated for 6 hrs, aspirated and ⅖ vol of media containing infectious HSV-1 d27-1 stock was added and incubated for 1-2 hours at 37° C., […] after which time ⅗ vol of DMEM 10% FBS media was added. The cultures were returned to the incubator and supernatant was harvested after 70-74 hours.

SMILES: CCCC(CCC)C(=O)O [VA, valproic acid]
- titer of d27-1/GFP HSV-1 compared to untreated control (VA 5 mM, 6 hrs pretreatment): slightly elevated
- titer of d27-1/GFP HSV-1 compared to untreated control (VA concentrations below and above 5 mM, pretreatment): inhibitory effect
